This is an account of results in patent US20110144194A1, “CHROMENONE DERIVATIVES USEFUL FOR THE TREATMENT OF NEURODEGENERATIVE DISEASES” (priority 2008, published 2011).

Entries after “also recorded” stand apart in the source; their conditions may differ.

One assay relates to microglial cells. In words: Nitrite quantification by Griess method in LPS-activated microglial cells. As to conditions: test compound at 1 μM; 10 ng/ml LPS; medium collected after 48 h; control 0.1% DMSO; read-out: % of NO/control. Type of assay: cell-based. Here is the method: (§1) The experiments that were carried out concern the ability of these molecules to inhibit the liberation of nitrites and Tumor Necrosis Factor-alpha (TNF-α) in the activated microglia. NO and TNF-α production are two common parameters related to inflammatory processes.
To evaluate the nitrite production, microglial cells were cultured in DMEM-F12 medium containing 2% heat-inactivated FBS in 48 well plates at a density of 20000 cells per well. Peripheral wells of the plate were discarded. After 72 h, 400 μL out of 500 μL medium was replaced by 350 μL fresh medium. The cells were treated with each molecule to be tested by adding 50 μL of a 10× solution to obtain a final concentration ranging from 0.1 μM to 1 μM. Each treatment was done in duplicates. 10 ng/ml LPS was added after 1 hour and the medium was collected after 48 h and stored at −20° C. until analysis. To quantify the NO production, nitrites were measured using Griess reactive (sulfanilamide 1%, Sigma; N-(1-Naphthyl)ethylenediamine 0.1%, Sigma; phosphoric acid 2.5%). Briefly, 100 μL of medium was placed into a 96 well plate and 100 μL of Griess reactive was added. After […] incubation at RT in the dark, the OD was measured at 550 nm.
The ability of each test compound to decrease the production of nitrite is presented as a percent decrease in OD with respect to the absorbance of the control condition i.e. 0.1% DMSO.
As to `COc1ccc(-c2oc3ccc(CCCCCCCCCCCCO)cc3c(=O)c2O)cc1OC`, the activity at 1 µM amounted to 87.7 ± 7.7%.
Take `COc1ccc(-c2oc3ccc(CCCCCCCCCCCCCO)cc3c(=O)c2O)cc1OC`: the activity at 1 µM is 89 ± 7.6%.
On the same count and under the same terms, the value for `O=c1c(O)c(-c2ccc(O)c(O)c2)oc2ccc(CCCCCCCCCCCCO)cc12` was 84.5 ± 5.9%; that for `O=c1c(O)c(-c2ccc(O)c(O)c2)oc2ccc(CCCCCCCCCCCCCO)cc12` was 86.3 ± 4.2%.
Still for that read-out and setting: then `COc1cc(-c2oc3ccc(CCCCCCCCCCCCCO)cc3c(=O)c2OC)ccc1O`, with 95.3 ± 4.8%; and `COc1ccc(-c2oc3ccc(CCCCCCCCCCCCCO)cc3c(=O)c2O)cc1O`, with 103 ± 4%; and `COc1cc(-c2oc3cc(O)c(CCCCCCCCCCCCO)cc3c(=O)c2O)ccc1O`, with 90.3 ± 3.9%.
The same measure, in the same setting: the value for `COc1cc(-c2oc3cc(O)c(CCCCCCCCCCCCCO)cc3c(=O)c2O)ccc1O` was 98.2 ± 1%; that for `COc1cc(-c2oc3cc(O)c(CCCCCCCCCCCCO)c(O)c3c(=O)c2O)ccc1O` was 99.6 ± 1.5%; that for `COc1cc(-c2oc3cc(O)c(CCCCCCCCCCCCCO)c(O)c3c(=O)c2O)ccc1O` was 109 ± 10.5%.
Turning to `O=c1c(O)c(-c2ccc(O)c(O)c2)oc2cc(O)c(CCCCCCCCCCCCO)c(O)c12`, the activity at 1 µM turned out to be 81.6 ± 4%.
Same read-out and setting: the value for `O=c1c(O)c(-c2ccc(O)c(O)c2)oc2cc(O)c(CCCCCCCCCCCCCO)c(O)c12` was 82.4 ± 6.3%.
Still for that read-out and setting: then `COc1c(CCCCCCCCCCCCO)c(O)cc2oc(-c3ccc(O)c(O)c3)c(O)c(=O)c12`, with 112 ± 1.7%; and `COc1c(CCCCCCCCCCCCCO)c(O)cc2oc(-c3ccc(O)c(O)c3)c(O)c(=O)c12`, with 91.5 ± 2.6%.
Same read-out and setting: the value for `COc1cc(-c2oc3cc(O)c(CCCCCCCCCCCCO)c(OC)c3c(=O)c2O)ccc1O` was 97.6 ± 6.9%; that for `COc1cc(-c2oc3cc(O)c(CCCCCCCCCCCCCO)c(OC)c3c(=O)c2O)ccc1O` was 96.6 ± 4.2%.
Regarding `COc1cc(-c2cc(=O)c3cc(CCCCCCCCCCCCCO)ccc3o2)ccc1O`, the activity at 1 µM was 102 ± 3.8%.
Same read-out and setting: then `COc1cc(-c2oc3cc(O)c4cc(CCCCCCCCCCCCO)oc4c3c(=O)c2O)ccc1O`, with 112 ± 8%; and `O=c1c(O)c(-c2ccc(O)c(O)c2)oc2cc(O)c3cc(CCCCCCCCCCCCO)oc3c12`, with 112 ± 9.2%; and `COc1cc(-c2oc3ccc(CCCCCCCCCCCO)cc3c(=O)c2O)ccc1O` [drawing 16], with 72 ± 3%.
On the same count and under the same terms, then `COc1cc(-c2oc3ccc(CCCCCCCCCCCCO)cc3c(=O)c2O)ccc1O` [drawing 17], with 61.1 ± 3.1%.
The same measure, in the same setting: then `COc1cc(-c2oc3ccc(CCCCCCCCCCCCCO)cc3c(=O)c2O)ccc1O` [drawing 18, 3-hydroxy-2-(4-hydroxy-3-methoxyphenyl)-6-(13-hydroxytridecyl)-4H-chromen-4-one], with 59.8 ± 2.1%.
`COc1cc(-c2oc3ccc(CCCCCCCCCCCCCCO)cc3c(=O)c2O)ccc1O` [drawing 19]: the activity at 1 µM is 77.5 ± 3.9%.
Same read-out and setting: then `CCCCCCCCCCCCCc1ccc2oc(-c3ccc(O)c(OC)c3)c(O)c(=O)c2c1` [drawing 35], with 85 ± 0.9%.

For another assay, the system named is microglial cells. In words: TNF-α quantification by ELISA in supernatant of microglial cells. Type of assay: cell-based. The settings on record: test compound at 1 μM; medium collected 48 h after treatment; control 0.1% DMSO. Here is the method:
as §1
To quantify the presence of TNF-α in the supernatant of microglial cells, the medium was collected 48 h after treatment as described above. The ELISA 96 well plate was incubated overnight with the capture antibody (0.8 μg/ml, R&D). 10 μl of each sample was diluted with 90 μL of incubation buffer (PBS-BSA 1%, pH 7.2-7.4) and the plate was incubated for 2 h at RT. The plate was washed 3 times and incubated for 2 h with the detection antibody (150 ng/mL, R&D). […] After […] incubation at RT, the reaction was stopped with an equal volume of a 10% solution of sulfuric acid and the OD was measured at 450 nm.
The ability of each test compound to decrease the production of TNF-α is presented as a percent decrease in OD with respect to the absorbance of the control condition i.e. 0.1% DMSO.
Background: In an ELISA, binding on a coated surface is turned into a signal by an enzyme label.
For the molecule `COc1cc(-c2oc3ccc(CCCCCCCCCCCO)cc3c(=O)c2O)ccc1O` [drawing 38], the “% of TNF-α/control” value worked out at 69.2 ± 3.9%.
The same measure, in the same setting: then `COc1cc(-c2oc3ccc(CCCCCCCCCCCCCO)cc3c(=O)c2O)ccc1O` [drawing 40], with 77.2 ± 9.4%.
Same read-out and setting: the value for `COc1cc(-c2oc3ccc(CCCCCCCCCCCCCCO)cc3c(=O)c2O)ccc1O` [drawing 41] was 75.4 ± 17.2%; that for `CCCCCCCCCCCCCc1ccc2oc(-c3ccc(O)c(OC)c3)c(O)c(=O)c2c1` [drawing 42] was 91.2 ± 7.9%.

For the next assay, the system named is microglial cell line. In words: Real-time PCR gene expression analysis in microglial cell line with or without LPS activation. The settings on record: 1 μM, 3 hours incubation, with or without LPS 0.01 μg/ml; normalized to β-actin. Type of assay: cell-based. As for the experimental part:
To evaluate mRNA expression levels, total RNA was extracted using invisorb
RNA extraction kit (Invitek). The concentration was determined by reading the OD at 260 nm. Retro-transcription was performed using Im-Prom-II™ Reverse Transcription System (Promega) with 1 μg of total RNA.
The reaction mixture contained 12.5 μl 2× SYBR Green mastermix (Biorad), 1 μl cDNA, 1 μl of each primer (12.5 μM) and 9.5 μl of H2O. The real-time PCR amplification was controlled by the MyIQ5 system (Biorad). After activation of the enzyme at 94° C. for […], the amplification was done by cycling 40 times between a denaturation step at 94° C. and the annealing step at 54.5° C. Gene expression was analyzed using the provided software and normalized to beta-actin expression.
FIG. 1: Compound B inhibits microglial activation in vitro. Real-time PCR gene expression analysis in microglial cell line. RNA extraction was performed after 3 hours of incubation with compound B (1 μM), with or without LPS activation (0.01 μg/ml).
(In general: In qPCR the cycle at which signal appears reflects the starting amount.)
For `COc1cc(-c2oc3ccc(CCCCCCCCCCCCCO)cc3c(=O)c2O)ccc1O` [Compound B, 3-hydroxy-2-(4-hydroxy-3-methoxyphenyl)-6-(13-hydroxytridecyl)-4H-chromen-4-one], the “Expression of transcripts (iNOS, TNF-α gene expression) in treated microglial cells” value is reported as “significantly decreased”.

Another assay concerns NSCs derived neurospheres. In words: Differentiation of NSCs to neurons: real-time PCR of Hes5 and Mash1 in neurospheres (Notch signaling). Type of assay: cell-based, mouse. The settings on record: 1 μM, vs 0.1% DMSO vehicle, β-actin internal control. Here is the method:
The NSCs derived neurospheres culture was established from embryonic mouse cortices. Neurospheres were maintained in Neurobasal-A medium supplemented with B27 w/o retinoic acid, 2 mM Glutamine, 20 ng/ml EGF and antibiotics. The neurospheres were dissociated using a non enzymatic dissociation medium (Invitrogen) and the single cell suspension added to a flask with fresh medium. To differentiate the neurospheres into neurons, oligodendrocytes and astrocytes, 3 to 4 days old neurospheres were cultured in poly-ornithine treated 35 mm dishes. Cells were treated with test compounds (1 μM) or 0.1% DMSO vehicle as control in Neurobasal-A medium supplemented with B27 w/o retinoic acid, 2 mM Glutamine, antibiotics, 2 ng/ml EGF and 0.5% of heat inactivated FBS. RNA extraction was performed after 24 hours of incubation and gene expression was analyzed by real-time PCR.
The primer pairs for mouse Mash1, Hes5 and beta-actin were designed with the beacon designer software (premierbiosoft).
Notch signaling controls a wide variety of cell fate decisions, including the differentiation of NSCs during neurogenesis [Artavanis-Tsakonas, S. et al., Science, 1999, 284, 770]. […] Notch activation induces the expression of the downstream effectors Hes1 and Hes5, which down-regulate gene transcription of b-HLH transcription factors such as Mash1. Therefore, we tested whether compounds of general Formula (I) and (II) could modulate Notch signalling in NSCs. […] Inhibition of the Hes5 gene expression in the treated cultures was further correlated with an increase of Mash1 transcripts, a b-HLH factor involved in neuronal specification and differentiation [Ito, H. et al., J Neurosci Res. 2003, 71, 648].
FIG. 2: Compound A and B induces NSCs differentiation into neurons. Real-time PCR gene expression analysis in neurospheres. RNA extraction was performed after […] of incubation with compound A and B (1 μM) or with 0.1% DMSO vehicle as control.
Take `COc1cc(-c2oc3ccc(CCCCCCCCCCCCO)cc3c(=O)c2O)ccc1O` [Compound A, 3-hydroxy-2-(4-hydroxy-3-methoxyphenyl)-6-(12-hydroxydodecyl)-4H-chromen-4-one]: the Hes5 gene expression result was “decrease” and the Mash1 transcripts result is listed as “increase; also recorded: significantly increased”.
Taken in the same sequence, the figures for `COc1cc(-c2oc3ccc(CCCCCCCCCCCCCO)cc3c(=O)c2O)ccc1O` [Compound B, 3-hydroxy-2-(4-hydroxy-3-methoxyphenyl)-6-(13-hydroxytridecyl)-4H-chromen-4-one] were “decrease” and “increase; also recorded: significantly increased”.

A further assay has as its system SH-SY5Y neuroblastoma cell line. In words: Differentiation of human neuroblastoma cell line SH-SY5Y into neurons: real-time PCR of Hash1 and Notch1. As to conditions: 1 μM, 24 hours; vs 0.1% DMSO vehicle; β-actin internal control. Type of assay: cell-based. As for the experimental part:
SH-SY5Y cells were cultured in 6 well plates at a density of 500000 cells per well and was maintained in DMEM with 10% FBS. After 24 h, the cells were treated with test compounds (1 μM) or 0.1% DMSO vehicle as control. RNA extraction was performed after 24 hours of incubation and gene expression was analyzed by real-time PCR.
The specific primer pairs directed against human Hash1, Notch1 and beta-actin are from the online database qprimerdepot (http://primerdepot.nci.nih.gov/).
The human homolog of Mash1, Hash1, is expressed in neuroblastoma cell lines. […] 2001, 36,132]. Therefore, we tested whether compounds of general Formula (I) and (II) could induce the differentiation of SH-SY5Y neuroblastoma cell line by modulating the gene expression of Hash1 and Notch1.
FIG. 3: Compound A and B induces neuroblastoma differentiation into a neuronal phenotype. Real-time PCR gene expression analysis in SH-SY5Y neuroblastoma cell line. RNA extraction was performed after 24 hours of incubation with compound A and B (1 μM) or with 0.1% DMSO vehicle as control.
For `COc1cc(-c2oc3ccc(CCCCCCCCCCCCO)cc3c(=O)c2O)ccc1O` [Compound A, 3-hydroxy-2-(4-hydroxy-3-methoxyphenyl)-6-(12-hydroxydodecyl)-4H-chromen-4-one], the Hash1 transcripts result is “inhibit; also recorded: significantly decreased” and the Notch1 transcripts result is listed as “inhibit; also recorded: significantly decreased”.
`COc1cc(-c2oc3ccc(CCCCCCCCCCCCCO)cc3c(=O)c2O)ccc1O` [Compound B, 3-hydroxy-2-(4-hydroxy-3-methoxyphenyl)-6-(13-hydroxytridecyl)-4H-chromen-4-one]: the Hash1 transcripts result is given as “inhibit; also recorded: significantly decreased” and the Notch1 transcripts result is listed as “inhibit; also recorded: significantly decreased”.
